From ChEMBL document CHEMBL1201862, “PubChem BioAssay data set” (2004)
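Grown in 96-well plates, cells were treated for 48 hours with each compound at five concentrations. Insufficient inhibition: endpoint recorded as highest concentration tested. GI50 = concentration required for 50% inhibition of growth.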 Calls of active or inactive are those of the source. Cut-off read from the data, not from the text of the source: active = GI50 up to about 1.1 µM and inactive = higher.

Assays:
Assay in all cases: NCI anticancer screen, dose series, 48 h
786-0 = test system: 786-0
A549 = test system: A549
CCRF-CEM = test system: CCRF-CEM
COLO 205 = test system: COLO 205
HCT-116 = test system: HCT-116
HCT-15 = test system: HCT-15
HL-60 = test system: HL-60
HOP-92 = test system: HOP-92
NCI-H23 = test system: NCI-H23
SF-268 = test system: SF-268
SK-MEL-5 = test system: SK-MEL-5
SK-OV-3 = test system: SK-OV-3
SR = test system: SR
TK-10 = test system: TK-10
UACC-257 = test system: UACC-257
A498 = test system: A498
KM12 = test system: KM12
OVCAR-5 = test system: OVCAR-5

Row | Structure (SMILES) | GI50 (786-0) | GI50 (A549) | GI50 (CCRF-CEM) | GI50 (COLO 205) | GI50 (HCT-116) | GI50 (HCT-15) | GI50 (HL-60) | GI50 (HOP-92) | GI50 (NCI-H23) | GI50 (SF-268) | GI50 (SK-MEL-5) | GI50 (SK-OV-3) | GI50 (SR) | GI50 (TK-10) | GI50 (UACC-257) | GI50 (A498) | GI50 (KM12) | GI50 (OVCAR-5)
1 | COC(=O)N/N=C/C(=C/Nc1ccccc1)[N+](=O)[O-] | > 100 µM (inactive) | > 100 µM (inactive) | > 100 µM (inactive) | > 100 µM (inactive) | > 100 µM (inactive) | 59 µM | > 100 µM (inactive) | 21 µM (inactive) | > 100 µM (inactive) | > 100 µM (inactive) | > 100 µM (inactive) | > 100 µM (inactive) | > 100 µM (inactive) | > 100 µM (inactive) | > 100 µM (inactive) | – | – | –
2 | Nc1nc(CCc2n[nH]c(N)n2)n[nH]1 | > 100 µM (inactive) | > 100 µM (inactive) | > 100 µM (inactive) | > 100 µM (inactive) | > 100 µM (inactive) | > 100 µM | > 100 µM (inactive) | > 100 µM (inactive) | > 100 µM (inactive) | > 100 µM (inactive) | > 100 µM (inactive) | > 100 µM (inactive) | – | > 100 µM (inactive) | > 100 µM (inactive) | > 100 µM (inactive) | > 100 µM (inactive) | > 100 µM (inactive)
3 | Cc1ccc(S(=O)(=O)CNC(=S)CCCC(=S)NCS(=O)(=O)c2ccc(C)cc2)cc1 | > 100 µM (inactive) | > 100 µM (inactive) | 21.3 µM (inactive) | > 100 µM (inactive) | 49 µM (inactive) | 53.8 µM | 16.1 µM (inactive) | 20.2 µM (inactive) | 35.4 µM (inactive) | > 100 µM (inactive) | 79.1 µM (inactive) | > 100 µM (inactive) | 32.7 µM (inactive) | > 100 µM (inactive) | > 100 µM (inactive) | > 100 µM (inactive) | > 100 µM (inactive) | > 100 µM (inactive)
4 | C/C(=N\NC(N)=S)C(CN(CC(C)C)CC(C)C)C(=O)Nc1ccc(C)cc1C (stereo not drawn) | > 100 µM (inactive) | > 100 µM (inactive) | > 100 µM (inactive) | > 100 µM (inactive) | > 100 µM (inactive) | > 100 µM | > 100 µM (inactive) | > 100 µM (inactive) | > 100 µM (inactive) | > 100 µM (inactive) | > 100 µM (inactive) | > 100 µM (inactive) | > 100 µM (inactive) | > 100 µM (inactive) | > 100 µM (inactive) | > 100 µM (inactive) | > 100 µM (inactive) | > 100 µM (inactive)
5 | CC(=O)NC1C(OCc2ccccc2)OC(COC(=O)CCCCCCCCCCNc2ccc([N+](=O)[O-])c3[nH]c4ccccc4c(=O)c23)C(O)C1OC(C)C(=O)NC(C)C(=O)NC(CCC(N)=O)C(=O)OCc1ccccc1 (stereo not drawn) | > 100 µM (inactive) | > 100 µM (inactive) | – | > 100 µM (inactive) | > 100 µM (inactive) | > 100 µM | > 100 µM (inactive) | – | > 100 µM (inactive) | > 100 µM (inactive) | > 100 µM (inactive) | > 100 µM (inactive) | > 100 µM (inactive) | > 100 µM (inactive) | > 100 µM (inactive) | > 100 µM (inactive) | > 100 µM (inactive) | > 100 µM (inactive)
6 | O=C1CCCC[C@H]1[C@H]1CCC[C@@H]([C@H]2CCCCC2=O)C1=O | > 100 µM (inactive) | > 100 µM (inactive) | > 100 µM (inactive) | > 100 µM (inactive) | > 100 µM (inactive) | > 100 µM | > 100 µM (inactive) | > 100 µM (inactive) | > 100 µM (inactive) | > 100 µM (inactive) | > 100 µM (inactive) | > 100 µM (inactive) | > 100 µM (inactive) | > 100 µM (inactive) | > 100 µM (inactive) | > 100 µM (inactive) | > 100 µM (inactive) | > 100 µM (inactive)
7 | Sc1ccccc1S | > 100 µM (inactive) | > 100 µM (inactive) | – | > 100 µM (inactive) | – | > 100 µM | > 100 µM (inactive) | > 100 µM (inactive) | > 100 µM (inactive) | > 100 µM (inactive) | – | > 100 µM (inactive) | – | > 10 µM (inactive) | – | – | – | –
8 | O=S(=O)(c1ccccc1)N1CCC1c1ccccc1 (stereo not drawn) | > 100 µM (inactive) | > 100 µM (inactive) | > 100 µM (inactive) | > 100 µM (inactive) | 87.5 µM (inactive) | > 100 µM | 6.34 µM (inactive) | 26.1 µM (inactive) | > 100 µM (inactive) | 87.1 µM (inactive) | > 100 µM (inactive) | > 100 µM (inactive) | – | > 100 µM (inactive) | 63.2 µM (inactive) | > 100 µM (inactive) | > 100 µM (inactive) | –
9 | S=c1nc(N2CCCCC2)ss1 | 20.9 µM (inactive) | 28.4 µM (inactive) | 11.7 µM (inactive) | – | 17.7 µM (inactive) | 21.1 µM | 13.5 µM (inactive) | 17.5 µM (inactive) | 47.5 µM (inactive) | 21.1 µM (inactive) | 16.6 µM (inactive) | > 100 µM (inactive) | 14.2 µM (inactive) | 40.6 µM (inactive) | 19.8 µM (inactive) | 20.2 µM (inactive) | 17.2 µM (inactive) | > 100 µM (inactive)
10 | CCCCCCCC(=O)OCC1OC(n2cc(F)c(=O)[nH]c2=O)C(N)C(O)C1O (stereo not drawn) | > 100 µM (inactive) | > 100 µM (inactive) | > 100 µM (inactive) | > 100 µM (inactive) | > 100 µM (inactive) | > 100 µM | > 100 µM (inactive) | > 100 µM (inactive) | > 100 µM (inactive) | > 100 µM (inactive) | > 100 µM (inactive) | > 100 µM (inactive) | > 100 µM (inactive) | – | > 100 µM (inactive) | > 100 µM (inactive) | > 100 µM (inactive) | > 100 µM (inactive)
11 | COS(=O)CCOC(=O)c1ccccc1SSc1ccccc1C(=O)OCCS(=O)OC (stereo not drawn) | 20.3 µM (inactive) | > 100 µM (inactive) | 3.79 µM (inactive) | 23.4 µM (inactive) | – | 23.8 µM | – | 25.1 µM (inactive) | 20.2 µM (inactive) | 32.3 µM (inactive) | 67 µM (inactive) | > 100 µM (inactive) | – | 81.8 µM (inactive) | 15.6 µM (inactive) | > 100 µM (inactive) | 27.1 µM (inactive) | 40.9 µM (inactive)
12 | CC1=C(C(=O)CC(=O)C(=O)Nc2cccc(Cl)c2C)Sc2ccccc2N1 | > 100 µM (inactive) | > 100 µM (inactive) | > 100 µM (inactive) | – | > 100 µM (inactive) | > 100 µM | > 100 µM (inactive) | > 100 µM (inactive) | > 100 µM (inactive) | > 100 µM (inactive) | > 100 µM (inactive) | > 100 µM (inactive) | > 100 µM (inactive) | > 100 µM (inactive) | > 100 µM (inactive) | – | > 100 µM (inactive) | > 100 µM (inactive)
